From patent US20260294884A1 (Insilico Medicine IP Limited, priority 2023, published 2026)

What was measured:
KAT6A = target: T1, KAT6A (Homo sapiens, UniProt Q92794); experiment: KAT6A biochemical assay (radiometric [3H]-acetyl CoA, biotinylated H4 (1-30) peptide); conditions: 60 min reaction, room temperature
T1 construct: purchased Active Motif
Description: Inhibition of KAT6A enzymatic activity by test compounds was determined using a radiometric 384-well format assay. A 10-point serial dilution of the test compounds were conducted in DMSO and then a volume of 200 nL was transferred into 384-well assay plate by Echo (Labcyte). 10 μL of 2×enzyme solution (5 nM KAT6A (Active Motif) in assay buffer (50 mM Tris —HCl pH 8.0, 50 mM KCl, 0.1 mM EDTA, 5% glycerol, 1 mM DTT)) was dispensed into assay plate except for low control wells, in which 10 μL of assay buffer was transferred. The plate was incubated at room temperature for 15 min before addition of 10 μL of 2×[^3H]-acetyl coenzyme A (Ac-COA) and substrate peptide mix solution (500 nM (KAT6A) [^3H]-Ac-COA (PerkinElmer) and 800 nM (KAT6A) biotinylated H4 (1-30) peptide (GL Biochem) in assay buffer) to each well to start reaction. The plate was incubated at room temperature for 60 min (KAT6A), and then the reaction was stopped by adding 10 μL of stop solution (cold Ac-COA (Cayman) in 1×assay buffer). […] The plate was read on Microbeta and the inhibition percentage of each compound treated well was calculated based on the equation inh %=(Max-sample)/(Max-Min)*100 where Max is signal from high control wells with enzyme, and Min is signal from low control wells with assay buffer only. […]

[1] = Kinetic solubility in 50 mM phosphate buffer (pH 7.4); type: physicochemical; conditions: versus compound 47
Description: 10 μL of 10 mM in DMSO of test and control compounds was added into lower chambers of whatman miniuniprep vials, respectively. 490 μL of 50 mM PB (pH 7.4) was added into lower chambers of the whatman miniuniprep vials, respectively. The solubility samples were vortexted for at least 2 minutes. The miniuniprep vials were shaken on a shaker for 24 hours at room temperature at the speed of 800 rpm and then centrifuged for 20 minutes (eg. 4000 rpm). The miniunipreps were compressed to prepare the filtrates for injection into HPLC system to calculate the concentration with standard curve.

Caco-2 cells = experiment: Permeability, Caco-2 assay; type: in vitro ADME
Description: Permeability of test compounds was determined in Caco-2 Assay. Caco-2 cells purchased from ATCC were seeded onto […] membranes (PET) in 96-well Corning Insert plates at 1×10^5 cells/cm^2, and refreshed medium every 4~5 days until to the 21st to 28th day for confluent cell monolayer formation. The transport buffer in the study was HBSS with 10.0 mM HEPES at pH 7.40±0.05. Test compound was tested at […] bi-directionally in duplicate. Digoxin was tested at 10.0 μM bi-directionally in duplicate, while nadolol and metoprolol were tested at 2.00 μM in A to B direction in duplicate. Final DMSO concentration was adjusted to less than 1%. The plate was incubated for 2 hours in CO2 incubator at 37±1° C., with 5% CO2 at saturated humidity without shaking. And all samples after mixed with acetonitrile containing internal standard were centrifuged at 3200×g for 10 min. For nadolol and metoprolol, 200 μL supernatant solution was diluted with 600 μL ultra-pure water for LC-MS/MS analysis. For digoxin and test compounds, 200 μL supernatant solution was diluted with 200 μL ultra-pure water for LC-MS/MS analysis. Concentrations of test and control compounds in starting solution, donor solution, and receiver solution were quantified by LC-MS/MS methodologies, using peak area ratio of analyte/internal standard. After transport assay, lucifer yellow rejection assay was applied to determine the Caco-2 cell monolayer integrity.

T1 sequence (Q92794 whole entry): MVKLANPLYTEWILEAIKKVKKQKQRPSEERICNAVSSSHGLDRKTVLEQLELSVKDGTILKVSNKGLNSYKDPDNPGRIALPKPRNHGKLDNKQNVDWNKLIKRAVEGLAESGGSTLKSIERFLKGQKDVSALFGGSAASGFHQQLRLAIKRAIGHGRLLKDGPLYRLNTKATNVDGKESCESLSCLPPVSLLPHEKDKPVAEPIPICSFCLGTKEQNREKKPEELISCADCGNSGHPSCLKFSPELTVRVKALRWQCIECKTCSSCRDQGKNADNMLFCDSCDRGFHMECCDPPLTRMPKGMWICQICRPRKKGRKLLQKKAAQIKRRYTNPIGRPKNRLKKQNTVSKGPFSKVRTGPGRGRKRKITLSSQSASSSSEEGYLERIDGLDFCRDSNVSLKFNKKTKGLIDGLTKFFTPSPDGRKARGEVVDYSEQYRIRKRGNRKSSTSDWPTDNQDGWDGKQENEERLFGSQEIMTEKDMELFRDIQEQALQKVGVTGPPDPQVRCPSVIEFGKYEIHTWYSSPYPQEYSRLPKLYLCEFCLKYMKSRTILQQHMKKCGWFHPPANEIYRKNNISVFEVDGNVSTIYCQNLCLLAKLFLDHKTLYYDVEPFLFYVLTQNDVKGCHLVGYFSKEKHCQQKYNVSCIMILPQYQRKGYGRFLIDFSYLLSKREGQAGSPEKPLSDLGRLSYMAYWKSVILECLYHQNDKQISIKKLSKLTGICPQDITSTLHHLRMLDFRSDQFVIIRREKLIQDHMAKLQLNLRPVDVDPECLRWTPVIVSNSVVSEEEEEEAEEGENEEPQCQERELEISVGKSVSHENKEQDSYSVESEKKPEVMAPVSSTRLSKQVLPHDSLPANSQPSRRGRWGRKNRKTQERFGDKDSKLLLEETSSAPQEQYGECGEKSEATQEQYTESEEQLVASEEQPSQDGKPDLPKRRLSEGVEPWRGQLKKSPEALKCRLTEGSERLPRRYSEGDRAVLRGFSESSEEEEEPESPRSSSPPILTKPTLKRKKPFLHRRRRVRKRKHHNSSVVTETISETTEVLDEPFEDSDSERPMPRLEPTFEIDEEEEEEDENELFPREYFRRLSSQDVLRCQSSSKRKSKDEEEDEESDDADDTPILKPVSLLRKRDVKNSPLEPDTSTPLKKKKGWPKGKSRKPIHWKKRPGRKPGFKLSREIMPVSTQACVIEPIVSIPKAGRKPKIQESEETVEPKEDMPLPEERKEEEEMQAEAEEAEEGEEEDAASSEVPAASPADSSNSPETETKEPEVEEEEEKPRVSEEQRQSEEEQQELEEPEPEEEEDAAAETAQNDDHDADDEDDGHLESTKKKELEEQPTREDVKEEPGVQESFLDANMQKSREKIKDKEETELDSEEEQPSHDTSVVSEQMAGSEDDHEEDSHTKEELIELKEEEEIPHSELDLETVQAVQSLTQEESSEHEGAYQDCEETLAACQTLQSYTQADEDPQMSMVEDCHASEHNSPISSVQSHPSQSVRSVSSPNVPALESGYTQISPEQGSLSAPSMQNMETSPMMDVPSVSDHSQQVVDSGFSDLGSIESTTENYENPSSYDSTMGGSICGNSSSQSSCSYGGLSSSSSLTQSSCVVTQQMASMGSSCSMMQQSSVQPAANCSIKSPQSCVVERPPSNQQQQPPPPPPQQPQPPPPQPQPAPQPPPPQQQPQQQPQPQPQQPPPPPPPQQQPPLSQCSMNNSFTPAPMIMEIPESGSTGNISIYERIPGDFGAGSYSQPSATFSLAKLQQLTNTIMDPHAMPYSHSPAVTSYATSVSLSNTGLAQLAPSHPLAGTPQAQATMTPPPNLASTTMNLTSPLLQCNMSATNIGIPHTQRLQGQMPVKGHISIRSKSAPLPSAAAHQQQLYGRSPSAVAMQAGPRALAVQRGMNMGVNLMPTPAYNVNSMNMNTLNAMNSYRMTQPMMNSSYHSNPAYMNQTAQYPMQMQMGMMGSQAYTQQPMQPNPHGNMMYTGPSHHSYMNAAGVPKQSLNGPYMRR

Row | SMILES | IC50 (KAT6A) [nM] | kinetic solubility, comparison with otherwise identical compound having X as carbon [1] | Mean Papp A to B (Caco-2 cells; Caco-2, pH 7.40, 2 hours, 37 °C, A to B) | permeability, comparison with corresponding compound having X as carbon (Caco-2 cells; versus compound 47)
1 | COc1ccccc1S(=O)(=O)Nc1noc2cc(Oc3ccccn3)cc(OC(F)F)c12 [Compound 27, N-(4-(difluoromethoxy)-6-(pyridin-2-yloxy)benzo[d]isoxazol-3-yl)-2-methoxybenzenesulfonamide] | 100 to 1000 |  |  | 
2 | COc1cccc(OC)c1S(=O)(=O)Nc1noc2cc(Oc3cccnn3)cc(OC(F)F)c12 [Compound 29, N-(4-(difluoromethoxy)-6-(pyridazin-3-yloxy)benzo[d]isoxazol-3-yl)-2,6-dimethoxybenzenesulfonamide] | 100 to 1000 |  |  | 
3 | COc1cccc(OC)c1S(=O)(=O)Nc1noc2cc(Oc3nccs3)c3c(c12)OCCC3 [Compound 35, 2,6-dimethoxy-N-(5-(thiazol-2-yloxy)-3,4-dihydro-2H-chromeno[8,7-d]isoxazol-9-yl)benzenesulfonamide] |  | improved kinetic solubility | 8.59 10^-6 cm/s | improved permeability
